Test [1] has as its system Vα2.3/Vβ8.2 MBP Acl-11 TCR transgenic T cells. The experiment in a line: Flow cytometry binding assay (periodate cross-linking, streptavidin-APC MFI). Also noted: species or system mouse. The settings on record: biotin-DOPA-AG12A 1-500 μM, cross-linked with periodate; MFI fitted with Graphpad Prism; estimated. The protocol: Following isolation of CD4+ T cells from TCR transgenic mice and WT controls, cells were washed and resuspended in 0.1% PBS/BSA (FACS buffer). The cells were incubated with increasing concentrations (1 μM, 10 μM, 100 μM, 250 μM, or 500 μM) of either the biotin-DOPA-AG12A peptoid or a biotin-DOPA-control peptoid and incubated for 30 min at 37° C. 5 mM sodium periodate was added to the cells briefly to cross-link the peptoid to the target receptor. This reaction was quenched with DTT and the cells were washed twice with 0.1% PBS/BSA. Fc block (BD Biosciences) was added to the cells for 15 min on ice in order to reduce non-specific binding to Fc receptors. The cells were stained with 1 μg anti CD4-PerCp Cy5.5 antibody and 0.02 μg streptavidin-APC antibody (BD Biosciences) for 15 minutes on ice. The staining was followed by 2 washes with 0.1% PBS/BSA and the cells were run on a FACS Calibur flow cytometer to assess peptoid binding. The data were analyzed using Flowjo software (Treestar) to determine the mean fluorescent intensity and are shown as histograms. The mean fluorescent intensities (MFI) were plotted using Graphpad Prism software to determine an estimated Kd value and are depicted as a line graph.

In test [2] the test system is CD4+ T cells from MBP Acl-11 TCR transgenic mice. The experiment in a line: Binding of quantum dot-labeled T cells to peptoid resynthesized on beads. Also noted: species or system mouse. The settings on record: Tentagel beads, red quantum dot-labeled T cells. The source says: Approximately 300,000 beads were swelled in DMF, washed with PBS, and equilibrated in complete RPMI 1640 media containing 3% BSA. CD4+ T cells isolated from either EAE or wild-type mice were resuspended in RPMI and labeled using quantum dots (Invitrogen) according to manufacturer's instructions. CD4+ T cells from EAE mice were labeled with Qtracker 655 (red) and CD4+ T cells from wild-type mice were labeled with Qtracker 565 (green). Labeled cells were mixed in a 1:1 ratio with a total of approximately 10×10^6 of each cell type. The cells were then incubated with the peptoid bead library overnight in a 37° C. incubator with 5% CO2 and gentle shaking. The beads were gently washed 2 times with RPMI media and were then visualized under a fluorescent microscope (Olympus BX-51) with excitation 340-380 nm using a DAPI filter (100×total magnification). Beads binding only to red labeled cells were selected manually using a 20 μl pipette. The “hit” beads were then washed, boiled with 1% SDS for 30 minutes and subjected to automated Edman sequencing.
To determine whether AG12A was binding to the autoreactive TCR, the inventors took advantage of the existence of transgenic mice, in which the vast majority of CD4+ T cells express the MBP Acl-11 specific TCR (Vα2.3/Vβ8.2 TCR) (Goverman et al., 1993). CD4+ T cells were isolated from these mice and tested for binding to AG12A. […]

Test [3] concerns CD4+ T cells from B10.PL wild-type control mice. The test is described as above. Details: species or system mouse. The settings on record: Tentagel beads, red quantum dot-labeled T cells. The protocol: Approximately 300,000 beads were swelled in DMF, washed with PBS, and equilibrated in complete RPMI 1640 media containing 3% BSA. CD4+ T cells isolated from either EAE or wild-type mice were resuspended in RPMI and labeled using quantum dots (Invitrogen) according to manufacturer's instructions. […] Labeled cells were mixed in a 1:1 ratio with a total of approximately 10×10^6 of each cell type. The cells were then incubated with the peptoid bead library overnight in a 37° C. incubator with 5% CO2 and gentle shaking. The beads were gently washed 2 times with RPMI media and were then visualized under a fluorescent microscope (Olympus BX-51) with excitation 340-380 nm using a DAPI filter (100×total magnification). Beads binding only to red labeled cells were selected manually using a 20 μl pipette. The “hit” beads were then washed, boiled with 1% SDS for 30 minutes and subjected to automated Edman sequencing.
To determine whether AG12A was binding to the autoreactive TCR, the inventors took advantage of the existence of transgenic mice, in which the vast majority of CD4+ T cells express the MBP Acl-11 specific TCR (Vα2.3/Vβ8.2 TCR) (Goverman et al., 1993). CD4+ T cells were isolated from these mice and tested for binding to AG12A. This was done in several ways. First, AG12A was resynthesized on beads, as was a control peptoid not selected as a T cell ligand (FIG. 6). […]

The test system of test [4] is B cells from B10.PL wild-type mice. The experiment in a line: CFSE proliferation assay. It is filed as cell-based, mouse. The settings on record: 1-500 μM peptoid, stimulated with LPS. The protocol: (§1) Following CD4+ T cell isolation, Vα2.3Vβ8.2 TCR transgenic T cells, B cells, or MOG-35-55 TCR transgenic T cells were labeled with CFSE (molecular probes) according to manufacturer's instructions. Briefly, cells were resuspended at a concentration of 1×10^6 per ml in PBS and incubated with 0.5 μM CFSE at 37° C. for 10 min. The staining was quenched with addition of 5 volumes of culture media containing 10% FBS. The cells were centrifuged, washed, and resuspended in complete RPMI 1640 media. The cells were then plated at 1×10^6 per ml. and incubated with increasing concentrations of either AG12A peptoid or a control peptoid (1 μM, 10 μM, 20 μM, 40 μM, 60 μM, 80 μM, 100 μM, 200 μM, or 500 μM) for 30 min at 37° C. Antigen presenting cells were isolated from spleens of WT B10.PL mice and 10 μg/ml of MBP Acl-11, MOG 35-55, or LPS were then added to the culture to stimulate the cells. The cells were left in culture for 5 days, stained with an anti-CD4-PerCp antibody (BD Biosciences), and run on the FACS Calibur flow cytometer to assess cell division. The data were analyzed using Flowjo software (Treestar) proliferation platform to determine percentage of dividing cells. The percent division was graphed using Graphpad Prism software and depicted as a line graph.

The test system of test [5] is CD4+ MBP Acl-11 specific murine TCR transgenic T cells. Kind of test: CFSE proliferation assay. Type of test: cell-based, mouse. The settings on record: 1-500 μM peptoid, MBP Acl-11 peptide 10 μg/ml and antigen presenting cells, 5 days. The protocol: as §1
The subject of test [6] is CD4+ T cells from MOG 35-55 TCR transgenic mice. The experiment in a line: CFSE proliferation assay. Type of test: cell-based, mouse. The settings on record: 1-500 μM peptoid, stimulated with MOG 35-55 peptide and antigen presenting cells. The protocol: as §1

Entries after “also recorded” stand apart in the source; their conditions may differ. Non-standard residues stand in square brackets, D forms with d. Residues, ends and D or L forms follow the SMILES beside them. Nrpe = C[C@@H](NCC(=O)O)c1ccccc1; NFurfurylGly = O=C(O)CNCc1ccco1; Nleu = CC(C)CNCC(=O)O; Nlys = NCCCCNCC(=O)O

As to `CC(C)CN(CC(=O)N(CCCCN)CC(=O)N(CC(=O)N(CC(=O)N(CCCCN)CC(=O)N(CC(=O)N(CCCCN)CC(=O)N(CCCCN)CC(N)=O)CC(C)C)[C@H](C)c1ccccc1)Cc1ccco1)C(=O)CNCCCCN` [AG12A] (H-[Nlys][Nleu][Nlys][NFurfurylGly][Nrpe][Nlys][Nleu][Nlys][Nlys]-NH2), in test [1], the Kd was around 40 µM. For the same compound, the figures for the “binding of T cells to peptoid displayed on beads” value in test [2] and in test [3] were “bound; also recorded: bind to AG12A peptoid beads” and “did not; also recorded: do not bind”, respectively. Further, the “inhibition of proliferation (percent division)” value in test [4] was “nor did AG12A inhibit”; in test [5], “inhibits proliferation”; in test [6], “did not inhibit”.

The record behind these values is patent US20130178835A1, “IDENTIFYING SYNTHETIC LIGANDS THAT BIND T-CELLS FROM PATIENTS HAVING AN AUTOIMMUNE DISEASE” (The Board of Regents of the University of Texas System, priority 2009, published 2013).
